Tested on: 883617-216-R-J1-PDC complex spheroid viability
Assay: Anticancer human tumor 883617-216-R-J1-PDC patient-derived bladder carcinoma cell line growth inhibition
Conditions: for IC50: curve of first compound; for viability, T/C: stronger effect = lower value
Summary of the method: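 Drug combinations with the LSD1 inhibitor iadademstat tested on tumor cells co-cultured as spheroids with endothelial cells and mesenchymal stem cells. Concentrations descended in half-log increments from clinical Cmax or 10 microM.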

[1] = second compound 0.1 µM, first compound 0.00949 µM
[2] = second compound 0.1 µM, first compound 0.03 µM
[3] = second compound 0.1 µM, first compound 0.0949 µM
[4] = second compound 0.1 µM, first compound 0.3 µM
[5] = second compound 0.1 µM, first compound 0.949 µM
[6] = second compound 0.1 µM, first compound 3 µM
[7] = second compound 0.316 µM, first compound 0.00949 µM
[8] = second compound 0.316 µM, first compound 0.03 µM
[9] = second compound 0.316 µM, first compound 0.0949 µM
[10] = second compound 0.316 µM, first compound 0.3 µM
[11] = second compound 0.316 µM, first compound 0.949 µM
[12] = second compound 0.316 µM, first compound 3 µM
[13] = second compound 1 µM, first compound 0.00949 µM
[14] = second compound 1 µM, first compound 0.03 µM
[15] = second compound 1 µM, first compound 0.0949 µM
[16] = second compound 1 µM, first compound 0.3 µM
[17] = second compound 1 µM, first compound 0.949 µM
[18] = second compound 1 µM, first compound 3 µM
[19] = second compound 3.16 µM, first compound 0.00949 µM
[20] = second compound 3.16 µM, first compound 0.03 µM
[21] = second compound 3.16 µM, first compound 0.0949 µM
[22] = second compound 3.16 µM, first compound 0.3 µM
[23] = second compound 3.16 µM, first compound 0.949 µM
[24] = second compound 3.16 µM, first compound 3 µM
[25] = second compound 10 µM, first compound 0.00949 µM
[26] = second compound 10 µM, first compound 0.03 µM
[27] = second compound 10 µM, first compound 0.0949 µM
[28] = second compound 10 µM, first compound 0.3 µM
[29] = second compound 10 µM, first compound 0.949 µM
[30] = second compound 10 µM, first compound 3 µM
[31] = second compound 0.1 µM, first compound 0.0316 µM
[32] = second compound 0.1 µM, first compound 0.1 µM
[33] = second compound 0.1 µM, first compound 0.316 µM
[34] = second compound 0.1 µM, first compound 1 µM
[35] = second compound 0.316 µM, first compound 0.0316 µM
[36] = second compound 0.316 µM, first compound 0.1 µM
[37] = second compound 0.316 µM, first compound 0.316 µM
[38] = second compound 0.316 µM, first compound 1 µM
[39] = second compound 1 µM, first compound 0.0316 µM
[40] = second compound 1 µM, first compound 0.1 µM
[41] = second compound 1 µM, first compound 0.316 µM
[42] = second compound 1 µM, first compound 1 µM
[43] = second compound 3.16 µM, first compound 0.0316 µM
[44] = second compound 3.16 µM, first compound 0.1 µM
[45] = second compound 3.16 µM, first compound 0.316 µM
[46] = second compound 3.16 µM, first compound 1 µM
[47] = second compound 10 µM, first compound 0.0316 µM
[48] = second compound 10 µM, first compound 0.1 µM
[49] = second compound 10 µM, first compound 0.316 µM
[50] = second compound 10 µM, first compound 1 µM
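Further: exposure lasted seven days after three days of spheroid growth.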
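Wherever viability, T/C is given: 100% = DMSO vehicle control luminescence.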

Nc1ccccc1NC(=O)c1ccc(CNC(=O)OCc2cccnc2)cc1 + NC1CC1c1ccc(-c2cccc(O)c2)cc1
IC50 (second compound 0.1 µM): 190 nM
IC50 (second compound 0.316 µM): 181 nM
IC50 (second compound 1 µM): 176 nM
IC50 (second compound 3.16 µM): 146 nM
IC50 (second compound 10 µM): 103 nM
viability, T/C [1]: 103%
viability, T/C [2]: 106%
viability, T/C [3]: 64.8%
viability, T/C [4]: 36.2%
viability, T/C [5]: 19.2%
viability, T/C [6]: 0.5%
viability, T/C [7]: 110%
viability, T/C [8]: 96%
viability, T/C [9]: 64.8%
viability, T/C [10]: 36.9%
viability, T/C [11]: 15.8%
viability, T/C [12]: 0.25%
viability, T/C [13]: 116%
viability, T/C [14]: 96.6%
viability, T/C [15]: 62.7%
viability, T/C [16]: 39.1%
viability, T/C [17]: 12.6%
viability, T/C [18]: 0.26%
viability, T/C [19]: 115%
viability, T/C [20]: 91.2%
viability, T/C [21]: 57.3%
viability, T/C [22]: 35.6%
viability, T/C [23]: 11.9%
viability, T/C [24]: 0.25%
viability, T/C [25]: 91.5%
viability, T/C [26]: 80.7%
viability, T/C [27]: 43.5%
viability, T/C [28]: 33.9%
viability, T/C [29]: 13.6%
viability, T/C [30]: 0.23%

CCN(c1cc(-c2ccc(CN3CCOCC3)cc2)cc(C(=O)NCc2c(C)cc(C)[nH]c2=O)c1C)C1CCOCC1 + NC1CCC(NC2CC2c2ccccc2)CC1
IC50 (second compound 0.1 µM): > 3000 nM
IC50 (second compound 0.316 µM): > 3000 nM
IC50 (second compound 1 µM): > 3000 nM
IC50 (second compound 3.16 µM): > 3000 nM
IC50 (second compound 10 µM): > 3000 nM
viability, T/C [1]: 96.4%
viability, T/C [2]: 85%
viability, T/C [3]: 86.9%
viability, T/C [4]: 84.7%
viability, T/C [5]: 90.7%
viability, T/C [6]: 80.8%
viability, T/C [7]: 95.8%
viability, T/C [8]: 98.8%
viability, T/C [9]: 93.1%
viability, T/C [10]: 87.6%
viability, T/C [11]: 89.1%
viability, T/C [12]: 86%
viability, T/C [13]: 90.2%
viability, T/C [14]: 89.5%
viability, T/C [15]: 83.8%
viability, T/C [16]: 88.4%
viability, T/C [17]: 90%
viability, T/C [18]: 86.3%
viability, T/C [19]: 94.5%
viability, T/C [20]: 87.7%
viability, T/C [21]: 88.3%
viability, T/C [22]: 89.9%
viability, T/C [23]: 87.9%
viability, T/C [24]: 93.9%
viability, T/C [25]: 97.8%
viability, T/C [26]: 91.7%
viability, T/C [27]: 90.8%
viability, T/C [28]: 96.2%
viability, T/C [29]: 94.5%
viability, T/C [30]: 92.8%

CC(C)c1c(-c2ccccc2)nc2c(C#N)c[nH]n2c1=O + NC1CC1c1ccc(-c2cccc(O)c2)cc1
IC50 (second compound 0.1 µM): > 10000 nM
IC50 (second compound 0.316 µM): > 10000 nM
IC50 (second compound 1 µM): > 10000 nM
IC50 (second compound 3.16 µM): > 10000 nM
IC50 (second compound 10 µM): > 10000 nM
viability, T/C [31]: 110%
viability, T/C [32]: 118%
viability, T/C [33]: 119%
viability, T/C [34]: 109%
viability, T/C (second compound 0.1 µM, first compound 3.16 µM): 113%
viability, T/C (second compound 0.1 µM, first compound 10 µM): 96%
viability, T/C [35]: 114%
viability, T/C [36]: 126%
viability, T/C [37]: 122%
viability, T/C [38]: 122%
viability, T/C (second compound 0.316 µM, first compound 3.16 µM): 94.8%
viability, T/C (second compound 0.316 µM, first compound 10 µM): 108%
viability, T/C [39]: 132%
viability, T/C [40]: 119%
viability, T/C [41]: 116%
viability, T/C [42]: 117%
viability, T/C (second compound 1 µM, first compound 3.16 µM): 102%
viability, T/C (second compound 1 µM, first compound 10 µM): 109%
viability, T/C [43]: 124%
viability, T/C [44]: 117%
viability, T/C [45]: 105%
viability, T/C [46]: 104%
viability, T/C (second compound 3.16 µM, first compound 3.16 µM): 100%
viability, T/C (second compound 3.16 µM, first compound 10 µM): 94.4%
viability, T/C [47]: 100%
viability, T/C [48]: 93.2%
viability, T/C [49]: 79.8%
viability, T/C [50]: 89.9%
viability, T/C (second compound 10 µM, first compound 3.16 µM): 96.2%
viability, T/C (second compound 10 µM, first compound 10 µM): 85.3%

COc1cc(Nc2ncc3c(n2)-c2ccc(Cl)cc2C(c2c(F)cccc2OC)=NC3)ccc1C(=O)O + NC1CCC(NC2CC2c2ccccc2)CC1
IC50 (second compound 0.1 µM): > 1000 nM
IC50 (second compound 0.316 µM): 262 nM
IC50 (second compound 1 µM): 322 nM
IC50 (second compound 3.16 µM): > 1000 nM
IC50 (second compound 10 µM): > 1000 nM
viability, T/C (second compound 0.1 µM, first compound 0.00316 µM): 96.2%
viability, T/C (second compound 0.1 µM, first compound 0.01 µM): 77.3%
viability, T/C [31]: 61.3%
viability, T/C [32]: 53.3%
viability, T/C [33]: 51.5%
viability, T/C [34]: 50.7%
viability, T/C (second compound 0.316 µM, first compound 0.00316 µM): 98.6%
viability, T/C (second compound 0.316 µM, first compound 0.01 µM): 81.1%
viability, T/C [35]: 58.7%
viability, T/C [36]: 53.3%
viability, T/C [37]: 48.8%
viability, T/C [38]: 49.1%
viability, T/C (second compound 1 µM, first compound 0.00316 µM): 94.8%
viability, T/C (second compound 1 µM, first compound 0.01 µM): 75.7%
viability, T/C [39]: 54.6%
viability, T/C [40]: 49.4%
viability, T/C [41]: 48.8%
viability, T/C [42]: 53%
viability, T/C (second compound 3.16 µM, first compound 0.00316 µM): 96.1%
viability, T/C (second compound 3.16 µM, first compound 0.01 µM): 83.7%
viability, T/C [43]: 58.8%
viability, T/C [44]: 50.8%
viability, T/C [45]: 55.5%
viability, T/C [46]: 56.2%
viability, T/C (second compound 10 µM, first compound 0.00316 µM): 93.5%
viability, T/C (second compound 10 µM, first compound 0.01 µM): 75.5%
viability, T/C [47]: 65.1%
viability, T/C [48]: 58.1%
viability, T/C [49]: 54.7%
viability, T/C [50]: 51.1%

— PubChem BioAssay AID1918945 (Molecular Pharmacology Branch, DTP, NCI, 2023)
